Experiments:
[1] = system: CCl4-induced liver fibrosis; experiment: CCl4-induced liver fibrosis mouse model: liver injury and fibrosis; assay type: in vivo, C57BL/6 mice; conditions: CCl4 mice
Protocol: C57BL/6 mice (20 ± 2 g) were obtained from Hangzhou Medical College Experimental Animal Center (Hangzhou, China). The animals were maintained under controlled temperature (22°C ± 1°C), humidity (50%), and light (12 h light/12 h dark). The animals were fed a standard laboratory diet and provided with free access to tap water. All animals received humane care according to institutional animal care guidelines approved by the Experimental Animal Ethical Committee of Hangzhou Medical College. Forty mice were randomly divided into six groups: (1) vehicle control (n = 7); (2) CCl4 model (n = 7); (3) CCl4 + LIN (20 mg/kg) (n = 7); (4) CCl4 + LIN (40 mg/kg) (n = 7); (5) LIN (40 mg/kg) (n = 7); and (6) CCl4 + silymarin (SIL) (200 mg/kg) (n = 5). LIN and SIL were dissolved in 0.5% CMC-Na solution. Mice were administered LIN or SIL (intragastric administration, i.g.) once per day and CCl4 (intraperitoneal injection, i.p.; mixed 1:3 in olive oil, 2 mL/kg) twice per week for 4 weeks. Mice in the vehicle control group received olive oil (i.p. twice a week, 4 weeks) and 0.5% CMC-Na (i.g. every day, 4 weeks). After treatment, the mice were sacrificed, and plasma and liver tissues were collected and further analysed.
Serum was collected from blood samples after centrifugation at 860 × g for 15 min. Serum ALT (Nanjing Jiancheng Bioengineering Institute, C010-2-1) and AST (Nanjing Jiancheng Bioengineering Institute, C009-2-1) activities were measured using kits, according to the manufacturer’s instructions. Liver hydroxyproline content was determined using the alkaline hydrolysis method, as described in the kits. Serum levels of laminin (LN) were measured using ELISA kits, according to the manufacturer’s instructions (Shanghai YANJIN Biological Technology Co., LTD, F12019).
Total RNA was extracted from liver tissues and LX-2 cells using the TRIzol reagent. cDNA was synthesised using a PrimeScript RT Master Mix kit. Real-time PCR was performed using SYBR Green premix according to the manufacturer’s instructions. Relative expression of target genes was normalised to actin, analysed by the delta-delta-CT method and given as a ratio compared with the vehicle control. Primer sequences used in this study are listed in Supplementary Material.
A sample of the liver was fixed in 10% phosphate-buffered saline (PBS)-formalin solution and embedded in paraffin. Samples were sectioned (5 μm) and stained with haematoxylin-eosin (H&E) for histological observation of liver injury and stained with Masson’s trichrome and Sirius red to observe collagen deposition in the liver.

SHP2 PTP domain = biological target: T1, SHP2 PTP domain (Homo sapiens, UniProt Q06124); experiment: SHP2 inhibition assay (DiFMUP) with SHP2-PTP; HTS and dose-response; assay type: biochemical
T1 construct: Human SHP2 PTP domain (A237–I529) expression constructs; His-tag; made in house; host or cells: E. coli BL21 (DE3)
T1 sequence (Q06124 237-529): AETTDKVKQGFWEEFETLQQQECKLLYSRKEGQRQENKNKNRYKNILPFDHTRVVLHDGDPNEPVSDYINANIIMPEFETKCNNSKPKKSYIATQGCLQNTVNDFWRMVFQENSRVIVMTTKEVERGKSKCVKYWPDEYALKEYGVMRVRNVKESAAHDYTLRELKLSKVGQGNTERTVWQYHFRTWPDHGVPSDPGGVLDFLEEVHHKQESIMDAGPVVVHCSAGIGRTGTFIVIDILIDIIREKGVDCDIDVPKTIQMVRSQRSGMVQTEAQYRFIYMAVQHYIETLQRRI
Protocol: Human SHP2 PTP domain (A237–I529) expression constructs were engineered by cloning PTPN11 (NP_002825.3) into the pET30 plasmid with a His-tag to support further protein purification. The K366A/Q510A double mutation was introduced into the wild-type template using a site-directed mutagenesis kit (E0554S; New England Biolabs). The expression constructs were sequenced and transformed into BL21 (DE3)-competent cells. E. coli cells were grown at 37°C in an LB culture medium in the presence of […] kanamycin until the OD600 reached 1.0. The medium was then cooled to 18°C and 1 mM isopropyl ß-D-1-thiogalactopyranoside (IPTG) was added to induce protein expression overnight.
A surrogate phosphatase substrate, 6,8-difluoro-4-methylumbelliferyl phosphate (DiFMUP, Thermo Fisher, #D22065), was used to monitor the catalytic activity of SHP2 in a prompt fluorescence assay format. Specifically, the DiFMUP phosphatase assay was performed at 20°C in a 384-well Griener CELLSTAR black polystyrene plate in the buffer condition of 60 mM HEPES (pH7.5), 75 mM NaCl, 75 mM KCl, 1 mM EDTA, 0.05% Tween-20, 5 mM dithiothreitol (DTT). The final reaction volume was 25 μL. NP compound libraries were obtained from TargetMol at a stock concentration of 10 mM, dissolved in DMSO. The purity of the active compound LIN used in this study is 96.27% as tested by HPLC analysis. The HPLC traces is shown in Supporting Information. We co-incubated 0.5 nM of SHP2-PTP enzyme with tested NPs for 30 min at 20°C, followed by the addition of DiFMUP into the reaction. After 30 min, 5 μL of bpV(phen) solution was added to quench the dephosphorylation reaction. The signals were read on a plate reader (SpectraMax iD5, Molecular Devices). The excitation and emission wavelengths were 340 and 450 nm, respectively. The inhibitor dose-response curves were evaluated using a normalised IC50 regression curve fitting with control-based normalisation. For the full-length SHP2 inhibition assay, 0.5 μM of a bisphosphorylated pIRS-1 peptide (ChinaPeptides Ltd. Shanghai) was added for partial SHP2 activation. […]

[2] = LIN 20 and 40 mg/kg i.g. once per day, 4 weeks, p < 0.05
[3] = LIN 20 and 40 mg/kg, dose-dependent

C/C1=C\CCC2=C[C@@H](OC2=O)c2c(C)coc2C1 [LIN, linderalactone]
hepatic Col1a1 mRNA level ([1]; LIN 20 mg/kg): significantly reversed
hepatic Col3a1 mRNA level ([1]; LIN 20 mg/kg): significantly reversed
collagen deposition (Masson's trichrome, Sirius red) ([1]; LIN 40 mg/kg): mild collagen deposition in the liver without bridging fibrosis
serum ALT level [1, 2]: significantly reduced
serum AST level [1, 2]: significantly reduced
liver hydroxyproline level [1, 3]: decreased
serum laminin level [1, 3]: decreased
CCl4-induced liver damage (H&E: immune cell infiltration, swelling, necrosis of hepatocytes) ([1]; LIN treatment): ameliorated
extent of collagen deposition (Masson's trichrome, Sirius red) ([1]; LIN, dose-dependent): ameliorated
IC50 (SHP2 PTP domain; 0.5 nM SHP2-PTP, DiFMUP substrate, 30 min co-incubation at 20°C, read-out: IC50 against the SHP2 PTP domain): 1.87 ± 0.85 µM
inhibitory activity in verification experiment of initial hits (SHP2 PTP domain; dose-response confirmation of HTS hits): best inhibitory activity among the screened hits

Reference: article PMC9946977, “Identification of linderalactone as a natural inhibitor of SHP2 to ameliorate CCl4-induced liver fibrosis” (Frontiers in Pharmacology, 2023)
